Data on three compounds can be found in patent publication US20210283089A1, “Use of fumaric acid esters and pharmaceutically acceptable salts thereof in preparing pharmaceuticals for treating ferroptosis-related diseases” (XIANGYA HOSPITAL CENTRAL SOUTH UNIVERSITY, priority 2018, published 2021).

One assay has as its system HepG2 and LO2 cells. In words: Determination test of cell membrane lipid peroxidation level (MDA detection kit). The class given is cell-based, Human. The conditions noted are these: 6 h; for cell membrane lipid peroxidation level (stimulus alone): 80 mM ethanol or 10 μM DOX alone. As to the method:
Human hepatocytes HepG2 and LO2 cells are obtained from the cell bank of Xiangya Hospital. The medium is DMEM medium (HyClone, SH30022.01) and RPMI medium (HyClone, SH30809.01) containing 10% fetal bovine serum (Gibco, 10091148) and 100 U/mL ampicillin+streptomycin double-antibody (Gibco, 10378016). The cell incubator conditions are 37° C., constant temperature and humidity, and constant carbon dioxide concentration of 5%. DMSO, 1 μM of Erastin, 80 mM of ethanol, 10 μM of DOX, 10 μM DOX+10 μM dimethyl fumarate, 10 μM DOX+10 μM monomethyl fumarate, 10 μM DOX+1 μM Ferrostatin-1, 80 mM ethanol+10 μM dimethyl fumarate, 80 mM ethanol+10 μM monomethyl fumarate, and 80 mM ethanol+1 μM Ferrostatin-1 are respectively added to monolayer adherent hepatocytes HepG2 and LO2 cells. After being incubated for 6 h, the cells are gently rinsed with PBS buffer pre-cooled at 4° C. for 3 times, and every 1 million cells are homogenized with 0.1 mL of IP lysate (Beyotime, […]), and supernatant is collected after centrifugation at 4° C. The cell membrane lipid peroxidation level is measured by MDA detection kit (Beyotime, […]), specific operations are performed according to the instructions, and the test is repeated for three times.

The subject of assay [1] is GPX4 protein level of HepG2 and LO2 cells. In words: Western Blot test 2: GPX4 protein level, DOX stimulation. The format is cell-based, Human. The conditions noted are these: 6 h.
Description: The medium is DMEM medium (HyClone, SH30022.01) and RPMI medium (HyClone, SH30809.01) containing 10% fetal bovine serum (Gibco, 10091148) and 100 U/mL ampicillin+streptomycin double-antibody (Gibco, 10378016). The cell incubator conditions are 37° C., constant temperature and humidity, and constant carbon dioxide concentration of 5%. 10 μM of DOX, 10 μM DOX+10 μM dimethyl fumarate, 10 μM DOX+10 μM monomethyl fumarate, and 10 μM DOX+1 μM Ferrostatin-1 are respectively added to monolayer adherent hepatocytes HepG2 and LO2 cells. After being incubated for 6 h, the cells are gently rinsed with PBS buffer pre-cooled at 4° C. for 3 times, and then a total protein of the cells is extracted with RIPA lysate (Beyotime, P0013B). Specific operations are performed according to the instructions. After the concentration of the extracted protein is determined by BCA protein concentration determination kit (Beyotime, [MUT]), it is stored at -20° C. for later use. Each histone sample and 2×Loading Buffer are prepared at a volume ratio of 1:1, and placed in a metal bath at 100° C. to boil and denature for 10 min, then placed on ice to cool for 5 min, and a sample is waited to be loaded. Specific operations are performed according to the instructions. The test is repeated for three times.
Assay [2] deals with mouse liver of alcoholic fatty liver disease model. In words: Inhibition test of ferroptosis in mouse liver of alcoholic fatty liver disease model. The class given is in vivo, C57BL/6 male mice. The conditions noted are these: 100 mg/Kg or 200 mg/Kg, intragastric, once a day, 10 consecutive days; versus model group. As to the method:
24 8-week-old SPF-grade C57BL/6 male mice are randomly divided into 4 groups, namely a blank group, a model group, a model+low-dose dimethyl fumarate (100 mg/Kg) group and a model+high-dose dimethyl fumarate (200 mg/Kg) group. The mice are let free to drink Lieber-DeCarli control diet for 5 days to gradually adapt to liquid diet and tube feeding. Subsequently, the model group is allowed to drink freely with 5% (volume/volume) standard Lieber-DeCarli alcohol liquid diet for 10 days, while the control group uses isocaloric control diet. From the 11-th day, the model+administration group is respectively administrated with dimethyl fumarate (100 mg/Kg) and dimethyl fumarate (200 mg/Kg) by intragastric administration once a day for 10 consecutive days. After that, the mice are anesthetized with 5% chloral hydrate in abdominal cavity, and liver tissues are collected, partly fixed in 10% formalin, and partly stored in liquid nitrogen. Then the following tests are separately performed (the dimethyl fumarate in the drawings of the description is represented by DMF):
(§1) A specific method is as follows: a mouse liver tissue sample fixed in 10% formalin is dehydrated, paraffin-immersed and embedded, and the paraffin-embedded tissue is sectioned. […]
(§2) A specific method is as follows: the paraffin-embedded tissue sections are baked in a constant temperature oven at 65° C. for 60 min to dissolve the paraffin, and then sequentially put in xylene to dewax and be transparent, and hydrated in ethanol solution with the concentrations from high to low. After the tissue sections are rinsed with PBS solution, a reagent A in a ready-to-use immunohistochemical hypersensitive UltraSensitive™ SP kit (Maixin Biotech Company, KIT-9707) is respectively added dropwise to remove an endogenous peroxidase from the tissues, and a reagent B is blocked by goat serum. […]

For assay [3], the system named is mouse liver of hepatic fibrosis model. As to the kind of experiment: Inhibition test of ferroptosis in mouse liver of hepatic fibrosis model. The format is in vivo, SD mice. The conditions noted are these: 15 mg/Kg or 25 mg/Kg, intragastric, once a day, 8 weeks; versus model group. On the procedure: 36 7-week-old SPF-grade SD mice of 200-250 g are randomly divided into 4 groups, namely a control group, a model group, a model+low-dose dimethyl fumarate (15 mg/Kg) group and a model+high-dose dimethyl fumarate (25 mg/Kg) group. In the model group, subcutaneous injection of 0.3 ml/100 g of 40% CCI4 peanut oil solution is used for modeling twice a week. It is started from the second week, 10% alcohol is used as the only beverage, the mice are fed with a corn meal feed mixed with 0.5% cholesterol, and modeling is continuously performed for 8 weeks. At the same time of modeling, the model+administration group are respectively given with dimethyl fumarate (15 mg/Kg) and dimethyl fumarate (25 mg/Kg) once a day by intragastric administration for 8 consecutive weeks. After that, the mice are anesthetized with 5% chloral hydrate in abdominal cavity, and the liver tissues are collected, partly fixed in formalin, and partly stored in liquid nitrogen. Then the following tests are separately performed (the dimethyl fumarate in the drawings of the description is represented by DMF):
as §1, §2

Assay [4] has as its system GPX4 protein level of HepG2 and LO2 cells. As to the kind of experiment: Western Blot test 1: GPX4 protein level, ethanol stimulation. The conditions noted are these: 6 h. The class given is cell-based, Human. In general terms: In western blotting, separated proteins are transferred to a membrane and probed.
Description: Human hepatocytes HepG2 and LO2 cells are obtained from the cell bank of Xiangya Hospital. The medium is DMEM medium (HyClone, SH30022.01) and RPMI medium (HyClone, SH30809.01) containing 10% fetal bovine serum (Gibco, 10091148) and 100 U/mL ampicillin+streptomycin double-antibody (Gibco, 10378016). The cell incubator conditions are 37° C., constant temperature and humidity, and constant carbon dioxide concentration of 5%. […] After being incubated for 6 h, the cells are gently rinsed with PBS buffer pre-cooled at 4° C. for 3 times, and then extracted for total protein of the cells with RI PA lysate (Beyotime, P0013B). Specific operations are performed according to the instructions. After the concentration of the extracted protein is determined by BCA protein concentration determination kit (Beyotime, [MUT]), it is stored at -20° C. for later use. Each group of protein sample and 2×Loading Buffer is prepared at a volume ratio of 1:1, and placed in a metal bath at 100° C. to boil and denature for 10 min, then placed on ice to cool for 5 min, and a sample is waited to be loaded. Specific operations are performed according to the instructions. The test is repeated for three times.
A further assay concerns HepG2 cells. In words: GSH and GSSG level determination test. The class given is cell-based, Human. The conditions noted are these: 10 μM and 30 μM, incubated 20 h; concentration-dependent. As to the method: Human hepatocytes HepG2 and LO2 cells are obtained from the cell bank of Xiangya Hospital. The medium is DMEM medium (HyClone, SH30022.01) and RPMI medium (HyClone, SH30809.01) containing 10% fetal bovine serum (Gibco, 10091148) and 100 U/mL ampicillin+streptomycin double-antibody (Gibco, 10378016). The cell incubator conditions are 37° C., constant temperature and humidity, and constant carbon dioxide concentration of 5%. Monolayer adherent HepG2 cells are digested with a trypsin into single-cell suspension, and the cells are plated on a 96-well plate at 4000 cells/well. After the cells are adhered for 4-6 h, DMSO, 10 μM of dimethyl fumarate, 30 μM of dimethyl fumarate, 10 μM of monomethyl fumarate and 30 μM of monomethyl fumarate are respectively added to the cell culture plate, and incubated for 20 h, GSH/GSSG-Glo™ Assay Kit (Promega, V6611) is used to detect the total GSH and GSSH of the cells. Specific operations are performed according to the instructions, and the experiment is repeated for three times.

[5] abbreviates: 10 μM DOX + 10 μM test substance.
Setting [6] is: 80 mM ethanol + 10 μM test substance.

Where a name gives a salt, the structure may show the parent alone.

For `COc1cccc2c1C(=O)c1c(O)c3c(c(O)c1C2=O)C[C@@](O)(C(=O)CO)C[C@@H]3O[C@H]1C[C@H](N)[C@H](O)[C@H](C)O1` [DOX, doxorubicin], in the assay with HepG2 and LO2 cells, the “cell membrane lipid peroxidation level (stimulus alone)” value is “significantly up-regulate”. The “GPX4 protein level (DOX alone)” value in assay [1] (10 μM DOX) is reported as “significantly down-regulate”.

On to `COC(=O)/C=C/C(=O)OC` [dimethyl fumarate, Dimethyl fumarate], for which the “cell membrane lipid peroxidation level caused by DOX” value in the assay with HepG2 and LO2 cells (setting [5]) is “significantly inhibit”. In addition, the “cell membrane lipid peroxidation level caused by ethanol” value in the assay on HepG2 and LO2 cells (setting [6]) was “significantly inhibit”. In addition, in assay [2], the “fatty degeneration of the hepatocytes and pericentral periphlebitis (H&E staining)” value was “significantly reduced”; the “liver 4-HNE protein level (immunohistochemistry)” value is “significantly down-regulated”; the “liver GPX4 protein level (immunohistochemistry, Western blot)” value is reported as “significantly up-regulated”. For the same compound, the “GPX4 protein level of DOX-stimulated cells” value in assay [1] (setting [5]) is “significantly up-regulate”. In assay [3], the “liver 4-HNE protein level (immunohistochemistry)” value is recorded as “significantly down-regulated”; the “liver GPX4 protein level (immunohistochemistry)” value is given as “significantly up-regulated”; the “liver pathological changes (fatty degeneration, necrosis, periportal inflammation, fibrosis; H&E and Sirius Red staining)” value is “significantly reduced”. The “GPX4 protein level of ethanol-stimulated cells” value in assay [4] (setting [6]) is given as “significantly up-regulate”. Further, in the assay on HepG2 cells, the “GSH level of the HepG2 cells” value was “significantly up-regulate” and the “GSSH level of the HepG2 cells” value is listed as “significantly up-regulate”.

In the case of `CCO` [ethanol], in the assay on HepG2 and LO2 cells, the “cell membrane lipid peroxidation level (stimulus alone)” value is “significantly up-regulate”. In addition, in assay [4] (80 mM ethanol), the “GPX4 protein level (ethanol alone)” value is listed as “significantly down-regulate”.
